Target: T1, Papain (Carica papaya, UniProt P00784)
T1 sequence (P00784 whole entry): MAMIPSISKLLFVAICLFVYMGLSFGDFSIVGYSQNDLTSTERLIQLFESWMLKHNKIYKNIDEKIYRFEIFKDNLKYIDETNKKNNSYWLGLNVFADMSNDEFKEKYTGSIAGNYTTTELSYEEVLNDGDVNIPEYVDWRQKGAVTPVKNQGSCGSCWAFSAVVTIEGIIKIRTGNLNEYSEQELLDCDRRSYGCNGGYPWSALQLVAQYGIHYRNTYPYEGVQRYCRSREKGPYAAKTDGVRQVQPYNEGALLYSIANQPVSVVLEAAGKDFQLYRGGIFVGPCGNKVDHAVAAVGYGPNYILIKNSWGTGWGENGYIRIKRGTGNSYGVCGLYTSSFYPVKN
Experiment: Inhibition of papaya papain using BAPNA as substrate assessed as p-nitroaniline release by spectrophotometric analysis

IC50, > 200 µM:
CCOP(=O)(CC=C(NC(=O)[C@H](Cc1c[nH]c2ccccc12)NC(=O)OCc1ccccc1)c1ccccc1)OCC
CCOP(=O)(CC=C(NC(=O)[C@H](CC(C)C)NC(=O)OCc1ccccc1)c1ccccc1)OCC
CCOP(=O)(CC=C(NC(=O)[C@H](CC(C)C)NC(=O)OCC1c2ccccc2-c2ccccc21)c1ccccc1)OCC
CCOP(=O)(CC=C(NC(=O)[C@H](CC(C)C)NC(=O)OC(C)(C)C)c1ccccc1)OCC

Reference: BindingDB's records for doi:10.1016/j.bmc.2011.09.058 (National Chemical Laboratory (Csir-Ncl), 2011)
